According to PubChem BioAssay (NCI):
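Values below derive from 48-hour exposures of cells grown in 96-well plates, with endpoints linearly interpolated between the two concentrations bracketing the appropriate inhibition level. At the TGI there is no net growth.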

Tests used:
Assay in all cases: NCI anticancer screen, dose series, 48 h
[1] = test system: HCT-15 colon
[2] = test system: HL-60(TB) leukemia
[3] = test system: MOLT-4 leukemia
[4] = test system: NCI-H460 lung
[5] = test system: NCI-H522 lung
[6] = test system: OVCAR-4 ovarian
[7] = test system: SF-295 CNS
[8] = test system: SR leukemia

`CCCCCCCCCCCC[C@@H](O)[C@H]1CCC([C@H](O)CCCCC(=O)CCCCCCCC2=C[C@H](C)OC2=O)O1` (stereo partly specified) gave a TGI [1] greater than 50 µM, a TGI [2] greater than 28.8 µM and a TGI [3] greater than 50 µM. For the same molecule, the TGI [4] was greater than 50 µM, the TGI [5] was greater than 50 µM and the TGI [6] was greater than 50 µM. It also gave a TGI [7] greater than 50 µM and a TGI [8] of 10.1 µM.

In the case of `CC(C)=CCc1[nH]c2ccccc2c1C1=C(O)C(=O)C(c2c(CC=C(C)C)[nH]c3ccccc23)=C(O)C1=O`, the TGI [1] is reported as 3.48 µM, the TGI [2] is reported as 5.6 µM and the TGI [3] is reported as 15.4 µM. It also gave a TGI [4] of 3.87 µM, a TGI [5] of 5.58 µM and a TGI [6] of 93.1 µM. The TGI [7] was 6.5 µM and the TGI [8] was 4.44 µM.

Molecule `Cc1ccc(C(=O)Nc2ccc(CP(=O)(O)O)cc2CP(=O)(O)O)cc1NC(=O)Nc1cc(C(=O)Nc2ccc(CP(=O)(O)O)cc2CP(=O)(O)O)ccc1C` has a TGI [1] greater than 100 µM, a TGI [2] greater than 100 µM and a TGI [4] greater than 100 µM. For the same molecule, the TGI [5] was greater than 100 µM, the TGI [6] was greater than 100 µM and the TGI [7] was greater than 100 µM.

In the case of `CSc1ccn(C2CC(F)C(CO)O2)c(=O)n1` (stereo unspecified), the TGI [1] is reported as greater than 100 µM, the TGI [2] is reported as greater than 100 µM and the TGI [3] is reported as greater than 100 µM. For the same molecule, the TGI [4] was greater than 100 µM, the TGI [5] was greater than 100 µM and the TGI [6] was greater than 100 µM. For the same molecule, the TGI [7] was greater than 100 µM and the TGI [8] was greater than 100 µM.

`Cc1nc(C)c(N2CCNCC2)c(=O)[nH]1` was tested, and the TGI [1] was greater than 100 µM, the TGI [2] was greater than 100 µM and the TGI [3] was greater than 100 µM. The TGI [4] was greater than 100 µM, the TGI [5] was greater than 100 µM and the TGI [6] was greater than 100 µM. It also gave a TGI [7] greater than 100 µM and a TGI [8] greater than 100 µM.

Molecule `Cc1c(N=Nc2ccccc2)c(C)n(C2OC(CO)C(O)C(O)C2O)c(=S)c1C#N` (stereo unspecified) has a TGI [1] greater than 100 µM, a TGI [2] greater than 100 µM and a TGI [3] of 70 µM. For the same molecule, the TGI [4] was greater than 100 µM, the TGI [6] was greater than 100 µM and the TGI [7] was greater than 100 µM. It also gave a TGI [8] of 87.7 µM.

`CC(=O)Oc1ccc2c(c1)CC[C@@H]1C2[C@@H](O[N+](=O)[O-])C[C@@]2(C)C1CC[C@@H]2O[N+](=O)[O-]` (stereo partly specified) gave a TGI [1] of 28.1 µM, a TGI [2] of 53.6 µM and a TGI [3] of 38.4 µM. For the same molecule, the TGI [4] was 28.7 µM, the TGI [5] was 25.4 µM and the TGI [6] was 33.3 µM. The TGI [7] was 23.7 µM and the TGI [8] was 27.7 µM.

In the case of `CC(C)=CCC/C(C)=C/COc1c2ccoc2cc2oc(=O)ccc12`, the TGI [1] is reported as greater than 100 µM, the TGI [2] is reported as 50.5 µM and the TGI [3] is reported as 42.3 µM. The TGI [4] was greater than 100 µM, the TGI [5] was 74.8 µM and the TGI [6] was greater than 100 µM. The TGI [7] was 75.3 µM and the TGI [8] was 43.1 µM.

`COc1ccc(C2C(C#N)=C(S)N(C3OC(COC(C)=O)C(OC(C)=O)C(OC(C)=O)C3OC(C)=O)C(c3ccccc3)=C2C(C)=O)cc1` (stereo unspecified) gave a TGI [1] greater than 100 µM, a TGI [2] greater than 100 µM and a TGI [3] greater than 100 µM. For the same molecule, the TGI [4] was greater than 100 µM, the TGI [5] was greater than 100 µM and the TGI [6] was greater than 100 µM. For the same molecule, the TGI [7] was greater than 100 µM.

Molecule `Cc1sc2c(c1C)/C(=N\O)c1cccn1-2` has a TGI [1] greater than 100 µM, a TGI [3] greater than 100 µM and a TGI [4] greater than 100 µM. The TGI [5] was greater than 100 µM, the TGI [6] was greater than 100 µM and the TGI [7] was greater than 100 µM. For the same molecule, the TGI [8] was greater than 100 µM.

`O=C(/C=C/c1cccc(Oc2ccccc2)c1)NCc1ccc(C(=O)NCCc2ccccc2)cc1` gave a TGI [1] greater than 100 µM, a TGI [3] greater than 100 µM and a TGI [4] greater than 100 µM. It also gave a TGI [5] greater than 100 µM, a TGI [6] greater than 100 µM and a TGI [7] greater than 100 µM. It also gave a TGI [8] greater than 100 µM.

Molecule `O=c1ccn(C2OC(CO)C(O)C2F)c(=O)n1Cc1ccccc1` (stereo unspecified) has a TGI [1] greater than 100 µM, a TGI [2] greater than 100 µM and a TGI [3] greater than 100 µM. It also gave a TGI [5] greater than 100 µM, a TGI [7] greater than 100 µM and a TGI [8] greater than 100 µM.

`C=C(C)COC1CCCCO1` (stereo unspecified) showed a TGI [1] greater than 100 µM, a TGI [2] greater than 100 µM and a TGI [3] greater than 100 µM. For the same molecule, the TGI [4] was greater than 100 µM, the TGI [5] was greater than 100 µM and the TGI [7] was greater than 100 µM.

Work on `NNC(=S)NCCNC(=S)NN` yielded a TGI [2] greater than 100 µM, a TGI [3] greater than 100 µM and a TGI [4] greater than 100 µM. It also gave a TGI [5] greater than 100 µM, a TGI [6] greater than 100 µM and a TGI [7] greater than 100 µM. The TGI [8] was greater than 100 µM.
